Laboratory results taken from US6054115A, “Hydroxymethyl phosphine compounds for use as diagnostic and therapeutic pharmaceuticals and method of making same” (priority 1998, dated 2000).

Columns and labels:
[1] = Oxidative stability of HMPE and HMPB in air and aqueous solution; type: physicochemical; settings: air and aqueous solutions
[2] = In vitro stability of Re complexes to cysteine challenge, 31P NMR; type: physicochemical; settings: for ligand exchange or complex decomposition: 1 M cysteine, 25° C, ~0.01 M complex
Protocol: Appropriate sample sizes of complexes 8, 9, and 10 were dissolved in 10 mL of deionized water to afford solution concentrations of ~0.01 M. To these solutions was added 15 mL of a 1.0 M cysteine solution also in water. The solutions were allowed to stir at room temperature overnight. The reaction progress for potential ligand displacement was monitored by ^31 P NMR spectroscopy at various timepoints over a twenty-four hour study period.
In order to determine the in vitro stability of the rhenium S2 P2 complexes 8, 9, and 10, the solutions of each were allowed to incubate at 25° C. in an aqueous solution of cysteine.

| Compound | oxidative stability [1] | ligand exchange or complex decomposition [2] | stability profile (kinetic inertness) ([2]; 1.0 M cysteine, 24 hours) |
| --- | --- | --- | --- |
| OCP(CO)c1ccccc1P(CO)CO [HMPB, (HOH2 C)2 PC6 H4 P(CH2 OH)2] | oxidatively stable in air and also in aqueous solutions | – | – |
| OCP(CO)CCP(CO)CO [HMPE, (HOH2 C)2 PCH2 CH2 P(CH2 OH)2] | oxidatively stable in air and also in aqueous solutions | – | – |
| [ReO2 (HOH2 C)2 P(CH2)2 S(CH2)3 S(CH2)2 P(CH2 OH)2 ]2 Cl2 [Compound 8] | – | no observable ligand exchange or complex decomposition | – |
| [ReO2 (HOH2 C)2 P(CH2)2 S(CH2)4 S(CH2)2 P(CH2 OH2 ]2 (ReO4^-)2 [Compound 9] | – | no observable ligand exchange or complex decomposition | – |
| [ReO2 (HOH2 C)2 P(CH2)3 S(CH2)3 S(CH2)3 P(CH2 OH)2 ]Cl [Compound 10] | – | no observable ligand exchange or complex decomposition | unusual kinetic inertness |
